Counter-ions that a name gives are not always drawn. Like-named read-outs stand apart in the source and are kept apart here.

A short description of series [1]: Evaluation of hippocampal distribution in mouse. The series is classed as in vivo. The settings on record: male ICR mice, 10 mg/kg oral; for concentration at 0.5 h / Kp at 0.5 h: 0.5 hr after administration; for Kp at 0.5 h / Kp at 1 h: hippocampus/plasma, read-out: hippocampus/plasma concentration ratio (mean); for concentration at 1 h / Kp at 1 h: 1 hr after administration. The method, then:
Evaluation of Hippocampal Distribution in Mouse
(§1) Male ICR mice (hereinafter mice) were acclimated for at least one week in a rearing facility. The mice were raised in a rearing room with controlled temperature and humidity under a 12:12 hour light-dark cycle, and allowed free ingestion of feed and water.
The compounds were suspended in 0.5% methylcellulose/0.02% citric acid/distilled water and orally administered. All compounds were administered to the mice at a dose of 10 mg/kg (body weight).
Blood samples were collected at 0.5 hr, or 1 hr, or 1.5 hr from compound administration, and the hippocampus was isolated simultaneously. The plasma concentration and hippocampus concentration of each test compound were measured by the LC/MS/MS method, the ratio (hippocampus/plasma concentration ratio) was calculated, and distribution into hippocampus was evaluated.

In series [2] the test system is white blood cell number, red blood cell number, platelet number. The series is described as follows: Evaluation of blood cell number in mouse. The series is classed as in vivo. The settings on record: oral, Day 2 after administration. As to the method:
Evaluation of Blood Cell Number in Mouse
as §1
The compounds were suspended in 0.5% methylcellulose/0.02% citric acid/distilled water and orally administered. All compounds were administered to the mice at a dose of 1 mg/kg, 10 mg/kg, 50 mg/kg or 100 mg/kg (body weight). On Day 2 after the administration of the compound, the whole blood was collected.
Using Sysmex XT-1800i (Sysmex Corporation), the white blood cell number, red blood cell number, and platelet number in the collected whole blood per unit volume were measured. The influence of each compound on each blood cell number was determined by comparing the number with the mean of each blood cell number of the mouse without administration of the compound (control group), and the numerical value of each blood cell number of a mouse with the administration of the compound is shown in percentage. percentage (%) of blood cell number of compound administration group as compared to control group=(mean blood cell number of compound administration group mean blood cell number of compound non-administration group)×100

[3] abbreviates: hippocampus, read-out: hippocampus concentration (mean).
The mark [4] stands for this setting: plasma, read-out: plasma concentration (mean).

On to `Cc1nnc(NC(=O)c2ccc(C)c([C@@H]3C[C@H]3NC3CCOCC3)c2)s1` (relative stereo) [Example 185, 4-methyl-N-(5-methyl-1,3,4-thiadiazol-2-yl)-3-(trans-2-(tetrahydro-2H-pyran-4-ylamino)cyclopropyl)benzamide hydrochloride], for which the values for the concentration at 0.5 h in series [1] (setting [3]) and in series [1] (setting [4]) were 581 ng/g and 1020 ng/mL, respectively. Besides, the Kp at 0.5 h in series [1] amounted to 0.58. Moreover, the “platelet number, percentage of compound administration group compared to control group, mean” value (shortened to “platelet number, percentage”) in series [2] (10 mg/kg) came to 90.4%; in series [2] (100 mg/kg), 84.7%. Besides, the “red blood cell number, percentage of compound administration group compared to control group, mean” value (shortened to “red blood cell number, percentage”) in series [2] (10 mg/kg) is reported as 102.0%; in series [2] (100 mg/kg) it was 100.7%. Besides, the entries for the “white blood cell number, percentage of compound administration group compared to control group, mean” value (“white blood cell number, percentage” for short) in series [2] (10 mg/kg) and in series [2] (100 mg/kg) were 88.0% and 129.9%, respectively.

`Cn1cc(NC(=O)c2cccc([C@@H]3C[C@H]3NC3CCC3)c2)cn1` (relative stereo) [Example 169, 3-(trans-2-(cyclobutylamino)cyclopropyl)-N-(1-methyl-1H-pyrazol-4-yl)benzamide dihydrochloride]: the concentration at 1 h in series [1] (setting [3]) is 396 ng/g. Besides, in series [1], the Kp at 1 h came out at 0.56. For the same compound, in series [1] (setting [4]), the concentration at 1 h worked out at 707 ng/mL. For the same compound, in series [2] (10 mg/kg), the “platelet number, percentage” value was determined as 102.2%; the “red blood cell number, percentage” value amounted to 105.1%; the “white blood cell number, percentage” value amounted to 99.1%. Moreover, in series [2] (100 mg/kg), the “platelet number, percentage” value came out at 100.7%; the “red blood cell number, percentage” value is 103.7%; the “white blood cell number, percentage” value was 109.2%.

Regarding `Cc1cc(NC(=O)c2cccc([C@@H]3C[C@H]3NC3CCC3)c2)no1` (relative stereo) [Example 232, 3-(trans-2-(cyclobutylamino)cyclopropyl)-N-(5-methyl-1,2-oxazol-3-yl)benzamide hydrochloride], in series [1] (setting [3]), the concentration at 1 h was determined as 572 ng/g. Also, the Kp at 1 h in series [1] turned out to be 3.66. Besides, the concentration at 1 h in series [1] (setting [4]) was 154 ng/mL. In series [2] (10 mg/kg), the “platelet number, percentage” value came out at 102.4%; the “red blood cell number, percentage” value was 100.4%; the “white blood cell number, percentage” value is recorded as 97.3%. In series [2] (100 mg/kg), the “platelet number, percentage” value was determined as 93.5%; the “red blood cell number, percentage” value turned out to be 99.3%; the “white blood cell number, percentage” value is 92.4%.

For the compound `O=C(NC1CCOCC1)c1cccc([C@@H]2C[C@H]2NCC2CC2)c1` (relative stereo) [Example 100, 3-(trans-2-((cyclopropylmethyl)amino)cyclopropyl)-N-(tetrahydro-2H-pyran-4-yl)benzamide hydrochloride], the concentration at 0.5 h in series [1] (setting [3]) was 207 ng/g. Also, the Kp at 0.5 h in series [1] was 0.24. Also, in series [1] (setting [4]), the concentration at 0.5 h came out at 889 ng/mL. In addition, in series [2] (10 mg/kg), the “platelet number, percentage” value stood at 98.1%; the “red blood cell number, percentage” value stood at 92.9%; the “white blood cell number, percentage” value is 99.4%. Also, in series [2] (100 mg/kg), the “platelet number, percentage” value is 91.0%; the “red blood cell number, percentage” value is listed as 98.8%; the “white blood cell number, percentage” value is 104.8%.

For `Cc1nnc(NC(=O)c2cc([C@@H]3C[C@H]3NC3CCC(F)(F)CC3)ccc2F)s1` (relative stereo) [Example 223, 5-(trans-2-((4,4-difluorocyclohexyl)amino)cyclopropyl)-2-fluoro-N-(5-methyl-1,3,4-thiadiazol-2-yl)benzamide dihydrochloride], the concentration at 0.5 h in series [1] (setting [3]) came to 2390 ng/g. Also, in series [1], the Kp at 0.5 h worked out at 1.69. In addition, the concentration at 0.5 h in series [1] (setting [4]) amounted to 1400 ng/mL. Further, in series [2] (10 mg/kg), the “platelet number, percentage” value is reported as 94.8%; the “red blood cell number, percentage” value stood at 101.2%; the “white blood cell number, percentage” value was 114.5%. Also, in series [2] (100 mg/kg), the “platelet number, percentage” value was 98.9%; the “red blood cell number, percentage” value was 100.4%; the “white blood cell number, percentage” value is on record as 121.7%.

On to `Cc1cc(NC(=O)c2cccc([C@@H]3C[C@H]3NCC3CC3)c2)n(C)n1` (relative stereo) [Example 107, 3-(trans-2-((cyclopropylmethyl)amino)cyclopropyl)-N-(1,3-dimethyl-1H-pyrazol-5-yl)benzamide dihydrochloride], for which the concentration at 0.5 h in series [1] (setting [3]) was 242 ng/g. Moreover, in series [1], the Kp at 0.5 h worked out at 0.09. Moreover, in series [1] (setting [4]), the concentration at 0.5 h amounted to 2560 ng/mL. In addition, in series [2] (10 mg/kg), the “platelet number, percentage” value was found to be 95.4%; the “red blood cell number, percentage” value was found to be 98.4%; the “white blood cell number, percentage” value is on record as 86.6%. Moreover, in series [2] (100 mg/kg), the “platelet number, percentage” value amounted to 91.1%; the “red blood cell number, percentage” value is recorded as 102.2%; the “white blood cell number, percentage” value is given as 132.7%.

With `O=C(NC1CC(F)(F)C1)c1cccc([C@@H]2C[C@H]2NC2CCC(F)(F)CC2)c1` (relative stereo) [Example 234, N-(3,3-difluorocyclobutyl)-3-(trans-2-((4,4-difluorocyclohexyl)amino)cyclopropyl)benzamide hydrochloride], the concentration at 1 h in series [1] (setting [3]) was 276 ng/g. Besides, the Kp at 1 h in series [1] was 1.58. Further, the concentration at 1 h in series [1] (setting [4]) was 175 ng/mL. For the same compound, in series [2] (10 mg/kg), the “platelet number, percentage” value is on record as 98.8%; the “red blood cell number, percentage” value was 97.7%; the “white blood cell number, percentage” value came to 76.7%. For the same compound, in series [2] (100 mg/kg), the “platelet number, percentage” value was 88.9%; the “red blood cell number, percentage” value amounted to 101.2%; the “white blood cell number, percentage” value was 94.8%.

For `Cc1cc(NC(=O)c2cccc([C@@H]3C[C@H]3NC3CCC(F)(F)CC3)c2)n(C)n1` (relative stereo) [Example 215, 3-(trans-2-((4,4-difluorocyclohexyl)amino)cyclopropyl)-N-(1,3-dimethyl-1H-pyrazol-5-yl)benzamide dihydrochloride], the concentration at 0.5 h in series [1] (setting [3]) was 481 ng/g. In addition, in series [1], the Kp at 0.5 h worked out at 0.31. In series [1] (setting [4]), the concentration at 0.5 h was found to be 1570 ng/mL. Besides, in series [2] (10 mg/kg), the “platelet number, percentage” value is 100.7%; the “red blood cell number, percentage” value is 98.4%; the “white blood cell number, percentage” value worked out at 113.3%. In series [2] (100 mg/kg), the “platelet number, percentage” value worked out at 91.2%; the “red blood cell number, percentage” value was 99.8%; the “white blood cell number, percentage” value was 124.7%.

The values above are taken from patent US9751885B2, “Cyclopropanamine compound and use thereof” (Takeda Pharmaceutical Company Limited, priority 2012, dated 2017).
